From US12600728B2, “Interleukin-17 inhibitors” (priority 2020, dated 2026)
Read-outs that look alike come from different tables or passages of the source.

How the values were obtained:
[1] = biological target: recombinant human IL-17AA (Homo sapiens, UniProt Q16552); test: IL-6 release from NHDF cells, IL-17AA plus TNF-α stimulation; type: cell-based; settings: IL-17AA 30 pM plus TNF-α 6 pM, 24 hours, IL-6 by ELISA
Outline: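 IL-17-specific IL-6 release from NHDF cells adhered overnight; compounds pre-incubated 30 min at room temperature with human IL-17AA plus TNF-α, then 24 h on cells at 37° C. Final DMSO 0.1% or plasma 20%; IL-6 by ELISA (450 nm). TNF-α-only IL-6 subtracted before IC50 fit.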

[2] = biological target: biotinylated human IL-17A / AF647-labeled human IL-17RA (Homo sapiens, UniProt Q16552); test: Human IL-17A×IL-17RA TR-FRET assay; type: binding; settings: biotinylated human IL-17A 5 nM, AF647-labeled human IL-17RA 30 nM
Outline: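 Compounds tested in duplicate at each concentration; neutral controls contain all components with DMSO in place of compound.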

[3] = NHDF cells, read-out: IL17AA + TNF IC50 IL-6
[4] = TR-FRET, read-out: IL17AA FRET/ IL17Rawt IC50
[5] = IL17AA + TNF IC50 IL-6, NHDF cells
[6] = IL17AA FRET/ IL17Rawt IC50, TR-FRET

Sequence of recombinant human IL-17AA (Q16552 24-155): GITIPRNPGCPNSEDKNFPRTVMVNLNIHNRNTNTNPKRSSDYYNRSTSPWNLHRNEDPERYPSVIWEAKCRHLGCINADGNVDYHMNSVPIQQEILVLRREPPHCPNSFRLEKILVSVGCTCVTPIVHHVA
Sequence of biotinylated human IL-17A / AF647-labeled human IL-17RA (Q16552 24-155): as above

Structure (SMILES)	IC50 [1, 3] [µM]	IC50 [2, 4] [µM]	IC50 [1, 5] [µM]	IC50 [2, 6] [µM]
Cc1nocc1C(=O)NC(C(=O)Nc1ccc(-c2c(Cl)cc[n+]([O-])c2C)cc1)C1CC2CC2C1 (stereo not shown) [Example 71, 3-(4-(2-(bicyclo[3.1.0]hexan-3-yl)-2-(3-methylisoxazole-4-carboxamido)acetamido)phenyl)-4-chloro-2-methylpyridine 1-oxide]	0.035	0.086	–	–
Cc1cc[n+]([O-])c(C)c1-c1ccc(NC(=O)[C@H](Cc2ccccc2F)NC(=O)c2conc2C)cc1 [Example 72, (S)-3-(4-(3-(2-fluorophenyl)-2-(3-methylisoxazole-4-carboxamido)propanamido)phenyl)-2,4-dimethylpyridine 1-oxide]	3.4	0.454	–	–
Cc1cc[n+]([O-])c(C)c1-c1ccc(NC(=O)[C@H](Cc2ccccc2)NC(=O)c2conc2C)cc1 [Example 74, (S)-2,4-dimethyl-3-(4-(2-(3-methylisoxazole-4-carboxamido)-3-phenylpropanamido)phenyl)pyridine 1-oxide]	> 10	1.53	–	–
Cc1cc[n+]([O-])c(C)c1-c1ccc(NC(=O)[C@H](Cc2ccccc2)NC(=O)c2ccnn2C)cc1 [Example 75, (S)-2,4-dimethyl-3-(4-(2-(1-methyl-1H-pyrazole-5-carboxamido)-3-phenylpropanamido)phenyl)pyridine 1-oxide]	> 10	2.64	–	–
Cc1cc[n+]([O-])c(C)c1-c1ccc(NC(=O)C(NC(=O)c2ccnn2C)C2CCC(C)CC2)cc1F [Example 84, 3-(2-fluoro-4-((S)-2-(1-methyl-1H-pyrazole-5-carboxamido)-2-((1r,4S)-4-methylcyclohexyl)acetamido)phenyl)-2,4-dimethylpyridine 1-oxide]	–	–	0.008	0.014
Cc1cc[n+]([O-])c(C)c1-c1ccc(NC(=O)[C@@H](NC(=O)c2ccnn2C)C2CCC(F)(F)C2)cc1 (stereo partly drawn) [Example 87, 3-(4-((2S)-2-(3,3-difluorocyclopentyl)-2-(1-methyl-1H-pyrazole-5-carboxamido)acetamido)phenyl)-2,4-dimethylpyridine 1-oxide]	0.504	0.489	–	–
Cc1cc[n+]([O-])c(Cl)c1-c1ccc(NC(=O)[C@@H](NC(=O)c2ccnn2C)C2CCCCC2)cc1 [Example 89, (S)-2-chloro-3-(4-(2-cyclohexyl-2-(1-methyl-1H-pyrazole-5-carboxamido)acetamido)phenyl)-4-methylpyridine 1-oxide]	0.083	0.286	–	–
COCc1nocc1C(=O)N[C@H](C(=O)Nc1ccc(-c2c(Cl)cc[n+]([O-])c2C)c(F)c1)C1CCCCC1 [Example 90, 4-chloro-3-(4-((S)-2-cyclohexyl-2-(3-(methoxymethyl)isoxazole-4-carboxamido)acetamido)-2-fluorophenyl)-2-methylpyridine 1-oxide]	0.005	0.065	–	–
Cc1cc[n+]([O-])c(C)c1-c1ccc(NC(=O)C(NC(=O)c2ccnn2C)C2CCC(C(F)(F)F)CC2)cc1F [Example 91, 3-(2-fluoro-4-((S)-2-(1-methyl-1H-pyrazole-5-carboxamido)-2-((1r,4S)-4-(trifluoromethyl)cyclohexyl)acetamido)phenyl)-2,4-dimethylpyridine 1-oxide]	–	–	0.039	0.134
Cc1c[n+]([O-])cc(C)c1-c1ccc(NC(=O)[C@@H](NC(=O)c2ccnn2C)C2CCCCCC2)cc1 [Example 99, (S)-4-(4-(2-cycloheptyl-2-(1-methyl-1H-pyrazole-5-carboxamido)acetamido)phenyl)-3,5-dimethylpyridine 1-oxide]	0.081	0.208	–	–
Cc1c[n+]([O-])cc(C)c1-c1ccc(NC(=O)[C@@H](NC(=O)c2ccnn2C2CC2)C2CCCCCC2)cc1 [Example 100, (S)-4-(4-(2-cycloheptyl-2-(1-cyclopropyl-1H-pyrazole-5-carboxamido)acetamido)phenyl)-3,5-dimethylpyridine 1-oxide]	0.046	0.243	–	–
Cc1c[n+]([O-])cc(C)c1-c1ccc(NC(=O)[C@@H](NC(=O)c2ccnn2C2CCC2)C2CCCCCC2)cc1 [Example 102, (S)-4-(4-(2-(1-cyclobutyl-1H-pyrazole-5-carboxamido)-2-cycloheptylacetamido)phenyl)-3,5-dimethylpyridine 1-oxide]	0.017	0.123	–	–

Now from value to compound, other results behind:

IC50 [1, 3] [µM]	IC50 [2, 4] [µM]	Structure (SMILES)	IC50 [1, 5] [µM]	IC50 [2, 6] [µM]
0.151	0.436	Cc1c(-c2ccc(NC(=O)[C@@H](NC(=O)c3ccnn3CCN(C)C)C3CCCCC3)cc2F)c(Cl)cc[n+]1[O-] [Example 77, 4-chloro-3-(4-((S)-2-cyclohexyl-2-(1-(2-(dimethylamino)ethyl)-1H-pyrazole-5-carboxamido)acetamido)-2-fluorophenyl)-2-methylpyridine 1-oxide]	–	–
0.035	0.085	Cc1c(-c2ccc(NC(=O)[C@@H](NC(=O)c3ccnn3C(C)C)C3CCCCC3)cc2F)ccc[n+]1[O-] [Example 82, (S)-3-(4-(2-cyclohexyl-2-(1-isopropyl-1H-pyrazole-5-carboxamido)acetamido)-2-fluorophenyl)-2-methylpyridine 1-oxide]	–	–
0.028	0.372	Cc1c(-c2ccc(NC(=O)[C@@H](NC(=O)c3ccnn3C)C3CCCCC3)cc2F)cc(Cl)c[n+]1[O-] [Example 92, (S)-5-chloro-3-(4-(2-cyclohexyl-2-(1-methyl-1H-pyrazole-5-carboxamido)acetamido)-2-fluorophenyl)-2-methylpyridine 1-oxide]	–	–
0.058	0.601	Cn1nccc1C(=O)N[C@H](C(=O)Nc1ccc(-c2c[n+]([O-])ccc2Cl)c(F)c1)C1CCCCC1 [Example 93, (S)-4-chloro-3-(4-(2-cyclohexyl-2-(1-methyl-1H-pyrazole-5-carboxamido)acetamido)-2-fluorophenyl)pyridine 1-oxide]	–	–
0.047	0.128	Cc1cc[n+]([O-])c(C)c1-c1ccc(NC(=O)[C@@H](NC(=O)c2ccnn2C2CC2)C2CCCCC2)cc1 [Example 94, (S)-3-(4-(2-cyclohexyl-2-(1-cyclopropyl-1H-pyrazole-5-carboxamido)acetamido)phenyl)-2,4-dimethylpyridine 1-oxide]	–	–
0.019	0.125	Cc1cc[n+]([O-])c(C)c1-c1ccc(NC(=O)[C@@H](NC(=O)c2ccnn2C)C2CCCCC2)cc1F [Example 95, 3-(4-((S)-2-cyclohexyl-2-(1-methyl-1H-pyrazole-5-carboxamido)acetamido)-2-fluorophenyl)-2,4-dimethylpyridine 1-oxide]	–	–
0.007	0.07	Cc1cc[n+]([O-])c(C)c1-c1ccc(NC(=O)[C@@H](NC(=O)c2ccnn2C(C)C)C2CCCCC2)cc1F [Example 96, 3-(4-((S)-2-cyclohexyl-2-(1-isopropyl-1H-pyrazole-5-carboxamido)acetamido)-2-fluorophenyl)-2,4-dimethylpyridine 1-oxide]	–	–
0.022	0.085	Cc1c[n+]([O-])cc(C)c1-c1ccc(NC(=O)[C@@H](NC(=O)c2ccnn2C(C)C)C2CCCCCC2)cc1 [Example 101, (S)-4-(4-(2-cycloheptyl-2-(1-isopropyl-1H-pyrazole-5-carboxamido)acetamido)phenyl)-3,5-dimethylpyridine 1-oxide]	–	–
